The record followed here is US10494332B2, “Protein tyrosine phosphatases or SHP2 inhibitors and uses thereof” (Indiana University Research and Technology Corporation, priority 2015, dated 2019).

What is called IC50 is the point on the concentration scale where inhibition reaches its midpoint.

Test [1] concerns the target mPTPA (Mycobacterium tuberculosis, UniProt P9WIA1). The test can be described thus: biochemical. Conditions: IC50 mPTPA.
The target of test [2] is T1, LMWPTP (Homo sapiens, UniProt P24666).
T1 sequence (P24666 1-158): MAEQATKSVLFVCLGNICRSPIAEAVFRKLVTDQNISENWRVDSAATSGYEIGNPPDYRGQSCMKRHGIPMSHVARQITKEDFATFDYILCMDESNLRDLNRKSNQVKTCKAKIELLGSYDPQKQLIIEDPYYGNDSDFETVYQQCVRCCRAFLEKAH
The experiment in a line: PTP inhibition assay (pNPP). Format: biochemical.

In test [3] the target is PTPμ (Homo sapiens, UniProt P28827). The test can be described thus: biochemical.
Chain of PTPμ (P28827 21-1452): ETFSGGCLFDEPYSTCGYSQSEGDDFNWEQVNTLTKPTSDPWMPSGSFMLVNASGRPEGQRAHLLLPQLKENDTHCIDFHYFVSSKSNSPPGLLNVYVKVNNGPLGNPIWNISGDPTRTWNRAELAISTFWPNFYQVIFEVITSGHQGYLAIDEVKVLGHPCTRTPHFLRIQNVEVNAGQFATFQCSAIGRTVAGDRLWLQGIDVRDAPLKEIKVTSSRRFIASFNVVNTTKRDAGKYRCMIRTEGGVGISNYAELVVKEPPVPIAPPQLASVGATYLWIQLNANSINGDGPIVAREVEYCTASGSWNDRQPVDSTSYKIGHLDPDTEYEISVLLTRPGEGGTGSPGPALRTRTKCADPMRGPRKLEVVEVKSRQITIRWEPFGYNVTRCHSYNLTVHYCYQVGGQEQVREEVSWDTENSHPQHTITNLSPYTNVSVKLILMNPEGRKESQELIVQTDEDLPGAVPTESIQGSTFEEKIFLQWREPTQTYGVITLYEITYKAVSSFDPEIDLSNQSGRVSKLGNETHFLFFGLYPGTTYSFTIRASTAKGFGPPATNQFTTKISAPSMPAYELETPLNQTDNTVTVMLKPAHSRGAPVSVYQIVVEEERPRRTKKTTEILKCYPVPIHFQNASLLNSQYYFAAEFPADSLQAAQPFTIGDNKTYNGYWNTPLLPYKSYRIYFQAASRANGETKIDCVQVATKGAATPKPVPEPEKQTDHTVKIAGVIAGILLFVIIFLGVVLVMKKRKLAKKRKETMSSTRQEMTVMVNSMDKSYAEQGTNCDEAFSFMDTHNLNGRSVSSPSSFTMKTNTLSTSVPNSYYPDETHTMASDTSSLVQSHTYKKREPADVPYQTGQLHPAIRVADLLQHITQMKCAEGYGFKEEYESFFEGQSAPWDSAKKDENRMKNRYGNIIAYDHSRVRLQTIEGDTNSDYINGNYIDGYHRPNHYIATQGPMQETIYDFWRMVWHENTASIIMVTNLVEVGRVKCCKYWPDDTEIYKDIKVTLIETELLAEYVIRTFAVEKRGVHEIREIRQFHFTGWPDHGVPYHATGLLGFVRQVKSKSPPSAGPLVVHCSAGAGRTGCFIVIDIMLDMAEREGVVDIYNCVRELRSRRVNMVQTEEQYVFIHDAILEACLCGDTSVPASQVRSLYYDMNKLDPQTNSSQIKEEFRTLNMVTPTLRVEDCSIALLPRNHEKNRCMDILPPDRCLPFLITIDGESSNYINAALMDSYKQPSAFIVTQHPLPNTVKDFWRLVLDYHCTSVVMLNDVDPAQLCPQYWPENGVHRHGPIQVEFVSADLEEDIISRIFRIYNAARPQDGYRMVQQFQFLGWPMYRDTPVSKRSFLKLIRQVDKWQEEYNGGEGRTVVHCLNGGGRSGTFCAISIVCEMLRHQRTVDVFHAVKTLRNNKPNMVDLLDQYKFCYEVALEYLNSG
Test [4] deals with H1975 non-small cell lung cancer (NSCLC) cell line. The test can be described thus: MTT cell proliferation assay. Format: cell-based, human. Conditions: 20 μM and 40 μM, 2 days. As to the method:
(§1) Human non-small cell lung carcinoma cell line H1975 was cultured at 37° C. and 5% CO2 in RPMI-1640 (Corning) supplemented with 10% fetal bovine serum (HyClone). Human breast cancer cell line MDA-MB-231 was cultured in DMEM supplemented with 10% fetal bovine serum. For cell proliferation assay, 2˜3×10^3 cells were seeded in each well of 96-well plates. After treating cells with compounds for 2 days, cells were incubated with 50 μg/ml MTT (3-(4,5-Dimethylthiazol-2-yl)-2,5-diphenyltetrazolium bromide) for ˜3-4 hours. Then, the culture medium was removed, DMSO was added to dissolve the formazan crystals. Wells containing only media were used for background correction. The optical density was measured spectrophotometrically at 540 nm. For signaling analysis, cells were serum-starved overnight followed by treatment with vehicle or compounds for 3 hours, and then either left un-stimulated or stimulated with 5 μg/ml EGF or 10 nM PMA (Sigma) for indicated time. Cells were lysed and the lysates were electrophoresed on a 10% polyacrylamide gel, and then transferred to a nitrocellulose membrane, and probed with anti-phospho-ERK1/2 and anti-ERK1/2 (Cell Signaling) antibodies followed by incubation with horseradish peroxidase-conjugated secondary antibodies. The blots were developed by the enhanced chemiluminescence technique using the SuperSignal West Pico Chemiluminescent substrate (Pierce).

Test [5] has as its target T2, PP5 (Homo sapiens, UniProt P53041).
T2 sequence (P53041 1-499): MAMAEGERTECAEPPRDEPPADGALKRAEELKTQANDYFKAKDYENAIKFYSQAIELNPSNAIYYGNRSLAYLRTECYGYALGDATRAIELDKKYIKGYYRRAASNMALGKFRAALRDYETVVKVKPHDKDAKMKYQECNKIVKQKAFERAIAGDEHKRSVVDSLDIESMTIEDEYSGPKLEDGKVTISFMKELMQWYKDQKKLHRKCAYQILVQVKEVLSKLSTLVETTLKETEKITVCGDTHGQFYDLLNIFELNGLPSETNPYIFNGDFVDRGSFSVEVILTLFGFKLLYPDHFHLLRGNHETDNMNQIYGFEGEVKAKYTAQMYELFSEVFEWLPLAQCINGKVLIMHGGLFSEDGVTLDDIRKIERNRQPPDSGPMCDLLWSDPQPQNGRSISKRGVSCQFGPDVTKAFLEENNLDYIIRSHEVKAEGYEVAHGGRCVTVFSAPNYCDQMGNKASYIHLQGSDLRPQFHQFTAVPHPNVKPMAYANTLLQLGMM
The test can be described thus: biochemical.

The target in test [6] is T3, SHP2 (Homo sapiens, UniProt Q06124).
T3 sequence (Q06124 224-528): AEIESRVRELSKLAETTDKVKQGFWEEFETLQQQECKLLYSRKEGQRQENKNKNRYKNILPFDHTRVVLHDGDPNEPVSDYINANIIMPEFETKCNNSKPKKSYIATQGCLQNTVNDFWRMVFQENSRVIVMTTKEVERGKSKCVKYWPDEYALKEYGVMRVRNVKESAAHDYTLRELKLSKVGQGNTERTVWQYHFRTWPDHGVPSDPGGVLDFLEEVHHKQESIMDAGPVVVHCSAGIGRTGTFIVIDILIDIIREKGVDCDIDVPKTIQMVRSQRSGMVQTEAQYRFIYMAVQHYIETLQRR
The test can be described thus: SHP2 phosphatase inhibition assay (pNPP). The following applies: for IC50: Example 9: SHP2 catalytic domain 20 nM, pNPP 3 mM, pH 7.0, 25° C., read-out: IC50 SHP2. The test is classed as biochemical.

Test [7] has as its system MDA-MB-231 breast cancer cell line. The test can be described thus: MTT cell proliferation assay. The test is classed as cell-based, human. Conditions: 20 μM and 40 μM, 2 days. Here is the method: as §1
(Formazan colour is commonly taken as a measure of viable cells.)

The target of test [8] is T4, VHX (Homo sapiens, UniProt Q9NRW4).
T4 sequence (Q9NRW4 1-184): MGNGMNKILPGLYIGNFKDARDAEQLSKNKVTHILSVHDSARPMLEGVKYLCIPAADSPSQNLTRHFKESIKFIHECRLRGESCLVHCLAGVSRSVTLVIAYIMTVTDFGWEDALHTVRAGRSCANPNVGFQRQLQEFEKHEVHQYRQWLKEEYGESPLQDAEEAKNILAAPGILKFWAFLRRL
The test can be described thus: PTP inhibition assay (pNPP). The test is classed as biochemical. The following applies: IC50 VHX, pNPP at Km, pH 7.0, 25° C.

The target of test [9] is T5, PEST (Homo sapiens, UniProt Q05209).
T5 sequence (Q05209 1-780): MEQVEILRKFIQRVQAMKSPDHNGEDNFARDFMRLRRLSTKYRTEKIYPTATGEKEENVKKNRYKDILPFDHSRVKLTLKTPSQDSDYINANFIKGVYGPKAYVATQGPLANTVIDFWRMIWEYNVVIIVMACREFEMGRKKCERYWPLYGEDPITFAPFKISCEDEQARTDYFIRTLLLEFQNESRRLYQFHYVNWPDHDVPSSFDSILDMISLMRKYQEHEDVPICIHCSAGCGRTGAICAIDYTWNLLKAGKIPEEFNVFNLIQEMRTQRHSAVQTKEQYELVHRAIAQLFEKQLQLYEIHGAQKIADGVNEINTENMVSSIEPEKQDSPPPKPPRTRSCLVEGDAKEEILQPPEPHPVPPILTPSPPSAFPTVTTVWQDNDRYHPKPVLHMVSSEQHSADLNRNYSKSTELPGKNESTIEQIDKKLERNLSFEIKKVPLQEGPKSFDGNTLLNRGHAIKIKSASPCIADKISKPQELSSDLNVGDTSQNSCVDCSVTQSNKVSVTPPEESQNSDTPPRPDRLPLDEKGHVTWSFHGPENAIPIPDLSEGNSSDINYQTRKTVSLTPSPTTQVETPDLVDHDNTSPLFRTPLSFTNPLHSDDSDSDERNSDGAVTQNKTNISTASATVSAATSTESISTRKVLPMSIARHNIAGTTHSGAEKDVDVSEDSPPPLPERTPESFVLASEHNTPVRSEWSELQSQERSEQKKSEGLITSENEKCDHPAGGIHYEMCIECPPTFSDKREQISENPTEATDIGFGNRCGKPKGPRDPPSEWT
The experiment in a line: PTP inhibition assay (pNPP). Format: biochemical.

The target in test [10] is TbPTP1 (Trypanosoma brucei brucei, UniProt Q38AT7). The experiment in a line: PTP inhibition assay (pNPP). The following applies: pH 7.0, 25° C. Format: biochemical.
Chain of TbPTP1 (Q38AT7 entry or part of it): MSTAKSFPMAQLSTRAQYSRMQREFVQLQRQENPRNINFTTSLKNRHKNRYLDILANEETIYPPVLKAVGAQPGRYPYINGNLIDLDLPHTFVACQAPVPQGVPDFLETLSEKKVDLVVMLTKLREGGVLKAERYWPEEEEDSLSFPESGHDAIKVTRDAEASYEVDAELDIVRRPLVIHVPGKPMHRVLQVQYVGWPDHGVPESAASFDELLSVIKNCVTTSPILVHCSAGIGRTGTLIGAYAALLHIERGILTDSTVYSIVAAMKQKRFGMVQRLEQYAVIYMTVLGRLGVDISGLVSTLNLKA
In test [11] the target is T6, Ssu72 (Homo sapiens, UniProt Q9NP77).
T6 sequence (Q9NP77 1-194): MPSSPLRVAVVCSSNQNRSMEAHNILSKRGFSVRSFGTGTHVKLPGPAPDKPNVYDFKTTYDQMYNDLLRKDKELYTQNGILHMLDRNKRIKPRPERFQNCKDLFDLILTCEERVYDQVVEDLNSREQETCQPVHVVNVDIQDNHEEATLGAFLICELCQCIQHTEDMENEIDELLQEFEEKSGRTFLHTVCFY
The experiment in a line: PTP inhibition assay (pNPP). Format: biochemical. Conditions: IC50 Ssu72.

In test [12] the target is FAP1 (Homo sapiens, UniProt Q12923). The test can be described thus: PTP inhibition assay (pNPP). The test is classed as biochemical. The following applies: IC50 FAP1.
Chain of FAP1 (Q12923 whole entry): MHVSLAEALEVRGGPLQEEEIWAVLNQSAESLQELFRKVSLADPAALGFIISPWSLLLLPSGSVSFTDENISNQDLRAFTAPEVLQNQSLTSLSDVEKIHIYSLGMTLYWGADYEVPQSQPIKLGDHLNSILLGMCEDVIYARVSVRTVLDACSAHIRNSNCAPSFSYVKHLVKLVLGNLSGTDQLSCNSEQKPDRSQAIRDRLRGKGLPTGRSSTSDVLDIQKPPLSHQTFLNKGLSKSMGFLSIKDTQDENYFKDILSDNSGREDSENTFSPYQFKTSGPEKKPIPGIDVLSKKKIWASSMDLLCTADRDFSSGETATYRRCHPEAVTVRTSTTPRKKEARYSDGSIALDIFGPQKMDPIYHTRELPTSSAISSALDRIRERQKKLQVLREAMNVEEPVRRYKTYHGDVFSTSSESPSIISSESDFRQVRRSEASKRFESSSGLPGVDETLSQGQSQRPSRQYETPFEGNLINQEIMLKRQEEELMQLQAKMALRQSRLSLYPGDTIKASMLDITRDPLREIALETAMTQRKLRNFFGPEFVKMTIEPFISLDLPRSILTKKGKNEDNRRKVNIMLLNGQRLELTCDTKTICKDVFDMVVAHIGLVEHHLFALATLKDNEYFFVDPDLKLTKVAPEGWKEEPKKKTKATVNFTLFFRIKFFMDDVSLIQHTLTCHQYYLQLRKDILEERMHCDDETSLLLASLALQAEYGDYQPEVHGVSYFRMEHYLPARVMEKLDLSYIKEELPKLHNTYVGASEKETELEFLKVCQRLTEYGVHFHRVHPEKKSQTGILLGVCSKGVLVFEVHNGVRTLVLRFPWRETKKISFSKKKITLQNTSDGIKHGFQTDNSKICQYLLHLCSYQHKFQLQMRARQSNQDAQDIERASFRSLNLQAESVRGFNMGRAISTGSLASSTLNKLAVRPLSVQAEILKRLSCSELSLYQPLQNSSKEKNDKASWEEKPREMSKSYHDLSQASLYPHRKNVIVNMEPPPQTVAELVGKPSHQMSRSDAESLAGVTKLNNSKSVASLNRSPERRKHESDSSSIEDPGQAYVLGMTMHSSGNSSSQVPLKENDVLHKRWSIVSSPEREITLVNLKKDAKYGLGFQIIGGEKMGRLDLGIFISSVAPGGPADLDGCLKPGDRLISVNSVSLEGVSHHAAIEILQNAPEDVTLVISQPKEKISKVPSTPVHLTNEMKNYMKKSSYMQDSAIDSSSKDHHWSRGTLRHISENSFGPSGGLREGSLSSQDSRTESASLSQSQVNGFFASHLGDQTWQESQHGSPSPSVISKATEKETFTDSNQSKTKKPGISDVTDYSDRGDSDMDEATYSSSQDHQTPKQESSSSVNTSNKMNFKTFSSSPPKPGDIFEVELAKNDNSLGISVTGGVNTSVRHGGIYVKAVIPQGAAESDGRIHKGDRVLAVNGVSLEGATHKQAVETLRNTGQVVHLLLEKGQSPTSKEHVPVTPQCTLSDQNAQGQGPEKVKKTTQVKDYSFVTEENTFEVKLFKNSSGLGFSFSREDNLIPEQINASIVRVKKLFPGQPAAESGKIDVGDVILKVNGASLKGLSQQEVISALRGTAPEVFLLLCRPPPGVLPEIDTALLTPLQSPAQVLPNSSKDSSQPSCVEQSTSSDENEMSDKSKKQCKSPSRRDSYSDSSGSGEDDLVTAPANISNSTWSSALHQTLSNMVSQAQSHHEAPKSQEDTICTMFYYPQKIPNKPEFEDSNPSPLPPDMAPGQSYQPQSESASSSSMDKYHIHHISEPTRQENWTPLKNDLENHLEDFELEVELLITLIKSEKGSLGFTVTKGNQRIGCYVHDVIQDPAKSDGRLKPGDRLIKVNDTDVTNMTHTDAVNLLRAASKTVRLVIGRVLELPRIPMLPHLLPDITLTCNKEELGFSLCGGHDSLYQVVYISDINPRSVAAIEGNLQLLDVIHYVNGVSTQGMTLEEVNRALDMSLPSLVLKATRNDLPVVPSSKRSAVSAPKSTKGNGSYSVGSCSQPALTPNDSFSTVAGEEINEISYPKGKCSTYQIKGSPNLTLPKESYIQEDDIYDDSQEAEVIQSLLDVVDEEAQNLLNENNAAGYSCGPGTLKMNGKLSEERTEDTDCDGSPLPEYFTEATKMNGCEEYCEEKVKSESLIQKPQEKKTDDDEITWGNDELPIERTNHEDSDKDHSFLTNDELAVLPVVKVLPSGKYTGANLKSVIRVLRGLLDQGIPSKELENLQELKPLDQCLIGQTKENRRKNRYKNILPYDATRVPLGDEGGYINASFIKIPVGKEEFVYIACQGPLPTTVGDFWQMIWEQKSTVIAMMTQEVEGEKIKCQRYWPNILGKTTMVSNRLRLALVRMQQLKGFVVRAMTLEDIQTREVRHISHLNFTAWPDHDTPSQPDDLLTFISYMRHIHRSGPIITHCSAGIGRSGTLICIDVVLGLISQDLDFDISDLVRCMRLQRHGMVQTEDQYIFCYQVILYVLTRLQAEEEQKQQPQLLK
Test [13] addresses SHP1 (Homo sapiens, UniProt P29350). The test can be described thus: PTP inhibition assay (pNPP). Format: biochemical. Conditions: pNPP at Km, pH 7.0, 25° C.
Test [14] deals with T7, STEP (Homo sapiens, UniProt P54829).
T7 sequence (P54829 1-565): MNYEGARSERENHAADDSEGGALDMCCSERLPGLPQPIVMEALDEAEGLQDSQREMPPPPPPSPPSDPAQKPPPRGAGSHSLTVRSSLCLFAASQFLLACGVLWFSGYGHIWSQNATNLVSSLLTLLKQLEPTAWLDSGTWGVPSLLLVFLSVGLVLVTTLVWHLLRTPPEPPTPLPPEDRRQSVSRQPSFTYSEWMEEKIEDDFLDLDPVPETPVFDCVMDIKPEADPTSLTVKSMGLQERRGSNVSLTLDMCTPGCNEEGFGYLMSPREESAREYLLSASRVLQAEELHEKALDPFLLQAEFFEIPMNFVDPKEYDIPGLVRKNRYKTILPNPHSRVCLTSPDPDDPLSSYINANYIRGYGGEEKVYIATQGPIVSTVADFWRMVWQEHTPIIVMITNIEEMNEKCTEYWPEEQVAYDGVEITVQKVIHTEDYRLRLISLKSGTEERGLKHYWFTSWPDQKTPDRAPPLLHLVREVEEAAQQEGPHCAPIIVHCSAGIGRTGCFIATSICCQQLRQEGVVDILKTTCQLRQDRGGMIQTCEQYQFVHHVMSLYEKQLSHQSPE
The test can be described thus: PTP inhibition assay (pNPP). The following applies: IC50 STEP, pNPP at Km, pH 7.0, 25° C. Format: biochemical.

Test [15] addresses T8, Laforin (Homo sapiens, UniProt O95278).
T8 sequence (O95278 1-331): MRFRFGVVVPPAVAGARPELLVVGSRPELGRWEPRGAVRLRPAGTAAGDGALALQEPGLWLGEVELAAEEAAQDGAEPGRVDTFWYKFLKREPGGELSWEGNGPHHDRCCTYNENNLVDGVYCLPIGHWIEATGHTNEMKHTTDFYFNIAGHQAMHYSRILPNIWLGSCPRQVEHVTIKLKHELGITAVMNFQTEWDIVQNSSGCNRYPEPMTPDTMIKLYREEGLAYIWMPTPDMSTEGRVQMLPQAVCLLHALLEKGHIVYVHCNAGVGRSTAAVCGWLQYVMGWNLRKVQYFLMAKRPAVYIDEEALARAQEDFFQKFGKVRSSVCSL
The experiment in a line: PTP inhibition assay (pNPP). Conditions: pNPP at Km, pH 7.0, 25° C.; read-out: IC50 Laforin. Format: biochemical.

“Also recorded” adds a separate entry of the source. Like-named read-outs stand apart in the source and are kept apart here.

Chain of SHP1 (P29350 whole entry): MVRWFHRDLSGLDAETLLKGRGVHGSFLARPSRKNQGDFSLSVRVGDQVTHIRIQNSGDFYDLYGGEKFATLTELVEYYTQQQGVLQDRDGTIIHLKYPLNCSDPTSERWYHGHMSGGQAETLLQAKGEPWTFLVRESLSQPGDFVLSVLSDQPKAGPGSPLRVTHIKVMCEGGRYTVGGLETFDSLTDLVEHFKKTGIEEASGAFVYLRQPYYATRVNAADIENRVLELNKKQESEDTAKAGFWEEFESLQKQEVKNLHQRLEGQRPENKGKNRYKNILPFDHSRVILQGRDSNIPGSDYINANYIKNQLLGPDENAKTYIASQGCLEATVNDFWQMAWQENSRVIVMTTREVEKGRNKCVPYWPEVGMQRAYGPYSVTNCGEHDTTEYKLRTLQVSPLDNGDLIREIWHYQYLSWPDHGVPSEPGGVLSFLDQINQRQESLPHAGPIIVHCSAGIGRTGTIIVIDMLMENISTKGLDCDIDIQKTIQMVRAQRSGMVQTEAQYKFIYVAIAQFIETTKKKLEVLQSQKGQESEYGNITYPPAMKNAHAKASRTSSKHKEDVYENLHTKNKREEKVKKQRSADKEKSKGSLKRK
Chain of mPTPA (P9WIA1 whole entry): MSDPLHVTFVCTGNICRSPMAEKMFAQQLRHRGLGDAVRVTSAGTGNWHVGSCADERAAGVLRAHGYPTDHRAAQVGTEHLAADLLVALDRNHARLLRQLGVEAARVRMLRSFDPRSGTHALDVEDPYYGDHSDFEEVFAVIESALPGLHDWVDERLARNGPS

With `O=C(CS(=O)(=O)O)Nc1ccc(N2CCOCC2)cc1`, the IC50 in test [1] is 2.2 µM; in test [2] (pNPP at Km, pH 7.0, 25° C.), 63 µM.
As to `O=C(Nc1ccc(NC(=O)C(c2ccccc2)S(=O)(=O)O)cc1)C(=O)Nc1ccc(-c2cccs2)cc1` (stereo not shown) [Compound 3, 2-oxo-2-((4-(2-oxo-2-((4-(thiophen-2-yl)phenyl)amino)acetamido)phenyl)amino)-1-phenylethanesulfonic acid], the IC50 was above 10 µM in [3], above 10 µM in [5] and 0.9 µM in test [6]. The “H1975 cell proliferation (MTT)” value in [4] is listed as “no significant effect”.
On to `O=C(Nc1ccc(NC(=O)C(c2ccccc2)S(=O)(=O)O)cc1)C(=O)Nc1cc(-c2ccc(Br)cc2)n[nH]1` (stereo not shown) [Compound 4, 2-((4-(2-((3-(4-bromophenyl)-1H-pyrazol-5-yl)amino)-2-oxoacetamido)phenyl)amino)-2-oxo-1-phenylethanesulfonic acid], for which the IC50 in test [3] is above 10 µM; in test [5] it was above 10 µM; in test [6], 0.73 ± 0.02 µM. For the same compound, the “H1975 cell proliferation (MTT)” value in test [4] was “no significant effect”. The “Fold selectivity for SHP2 against PTPs examined” value in test [6] (cefsulodin: with the exception of SHP1) is given as at least 8 fold.
`CC(C)c1ccc(NC(=O)C(=O)Nc2ccc(NC(=O)C(c3ccccc3)S(=O)(=O)O)cc2)cc1` (stereo not shown) [Compound 6, 2-((4-(2-((4-isopropylphenyl)amino)-2-oxoacetamido)phenyl)amino)-2-oxo-1-phenylethanesulfonic acid]: in test [4], the “H1975 cell proliferation (MTT)” value is recorded as “reduce H1975 cell proliferation in a dose dependent manner; also recorded: significantly (**p<0.01) reduced cell proliferation”. Besides, the “MDA-MB-231 cell survival/growth (MTT)” value in test [7] is on record as “significantly (**p<0.01) reduced cell survival”. Moreover, the IC50 in test [6] is 2.33 ± 0.04 µM.
As for `O=C(Nc1ccc(OCc2ccccc2)c(Cl)c1)C(=O)Nc1ccccc1NC(=O)C(c1ccccc1)S(=O)(=O)O` (stereo not shown) [Compound L319-21-M50], the IC50 in test [8] was above 50 µM; in [9] (IC50 PEST), above 50 µM; in test [10] (pNPP at Km, read-out: IC50 TbPTP1), above 50 µM; in test [11] it was above 50 µM; in test [12], 39 µM.
For `O=C(Nc1ccc(-n2ccnc2)cc1)C(c1ccccc1)S(=O)(=O)O` (stereo not shown) [Compound L319M63], the IC50 was above 200 µM in test [8]; above 100 µM in test [10] (IC50 TbPTP1, pNPP at Km); above 200 µM in test [13]; above 100 µM in test [14]; 7.7 µM in test [2] (pH 7).
As for `O=C(O)Cc1csc(NC(=O)C(c2ccccc2)S(=O)(=O)O)n1` (stereo not shown) [Compound L319N72], the IC50 in test [9] (pNPP at Km, pH 7.0, 25° C., read-out: IC50 PEST) is above 200 µM; in [15], 4.8 µM; in test [2] (pNPP at Km, pH 7.0, 25° C.), 98.1 µM.
`CO[C@@]1(NC(=O)C(C(=O)O)c2ccc(O)cc2)C(=O)N2C(C(=O)O)=C(CSc3nnnn3C)CO[C@@H]21` (stereo partly shown) [moxalactam, reference compound] displayed an IC50 in test [13] of 170 µM.
